Laboratory results reported in ChEMBL document CHEMBL5352486, “Design, synthesis, in vitro - In vivo biological evaluation of novel thiazolopyrimidine compounds as antileishmanial agent with PTR1 inhibition” (Eur J Med Chem, 2023).
Converted amounts (≈) assume the structure as drawn. The source made the active and inactive calls. The rule behind the calls is not given here.

Experiments:
[1] = system: Leishmania infantum; assay: Antileishmanial activity against Leishmania infantum infected in BALB/c mouse model of visceral leishmaniasis assessed as footpad lesion development at 50 mg/kg/day, IM administered for 21 days and measured after 5 weeks by Giemsa staining based analysis (reference value: 27.04 +/- 0.65); format: functional; details: time 21 day
[2] = (§1) Cytotoxicity against mouse L929 cells by alamar blue method; format: toxicity, cell-based; details: mouse, L929 cells
[3] = system: L929; assay: as §1; format: toxicity, cell-based; details: l929
[4] = system: Leishmania infantum; assay: Antileishmanial activity against Leishmania infantum infected in BALB/c mouse model of visceral leishmaniasis assessed as footpad lesion development at 50 mg/kg/day, IM administered for 21 days and measured after 3 weeks by Giemsa staining based analysis (reference value: 28.94 +/- 0.59); format: functional; details: time 21 day
[5] = system: Leishmania tropica; assay: Antileishmanial activity against Leishmania tropica MHOM/A7/1974/SAF-K27 incubated for 48 hrs by XTT method; format: functional, organism-based; details: MHOM/A7/1974/SAF-K27, 48 h
[6] = system: Leishmania tropica; assay: Antileishmanial activity against Leishmania tropica MHOM/A7/1974/SAF-K27 incubated for 48 hrs by Neubauer hemocytometer analysis; format: functional, organism-based; details: MHOM/A7/1974/SAF-K27, 48 h
[7] = system: Leishmania infantum; assay: Antileishmanial activity against Leishmania infantum infected in BALB/c mouse model of visceral leishmaniasis assessed as parasite growth in spleen at 50 mg/kg/day, IM administered for 21 days; format: functional, organism-based; details: time 21.0 day
[8] = system: Leishmania infantum; assay: Antileishmanial activity against Leishmania infantum infected in BALB/c mouse model of cutaneous leishmaniasis assessed as footpad lesion development at 50 mg/kg/day, ID administered for 21 days and measured after 6 weeks by Giemsa staining based analysis (reference value: 2.40 +/- 0.03); format: functional; details: time 21 day
[9] = system: Leishmania infantum; assay: Antileishmanial activity against Leishmania infantum infected in BALB/c mouse model of cutaneous leishmaniasis assessed as footpad lesion development at 50 mg/kg/day, ID administered for 21 days and measured after 10 weeks by Giemsa staining based analysis (reference value: 3.40 +/- 0.03); format: functional; details: time 21 day
[10] = system: Leishmania infantum; assay: Antileishmanial activity against Leishmania infantum infected in BALB/c mouse model of cutaneous leishmaniasis assessed as footpad lesion development at 50 mg/kg/day, ID administered for 21 days and measured after 12 weeks by Giemsa staining based analysis (reference value: 3.61 +/- 0.03); format: functional; details: time 21 day
[11] = system: Leishmania infantum; assay: Antileishmanial activity against Leishmania infantum infected in BALB/c mouse model of cutaneous leishmaniasis assessed as footpad lesion development at 50 mg/kg/day, ID administered for 21 days and measured after 2 weeks by Giemsa staining based analysis (reference value: 1.61 +/- 0.03); format: functional; details: time 21 day
[12] = system: Leishmania infantum; assay: Antileishmanial activity against Leishmania infantum infected in BALB/c mouse model of cutaneous leishmaniasis assessed as parasite growth in foodpad at 50 mg/kg/day, ID administered for 21 days; format: functional, organism-based; details: time 21.0 day
[13] = system: Leishmania infantum; assay: Antileishmanial activity against Leishmania infantum infected in BALB/c mouse model of cutaneous leishmaniasis assessed as footpad lesion development at 50 mg/kg/day, ID administered for 21 days and measured after 8 weeks by Giemsa staining based analysis (reference value: 3.13 +/- 0.03); format: functional; details: time 21 day
[14] = system: DHFR (human) versus PTR1 (Leishmania major); assay: Selectivity index, ratio of IC50 for human DHFR to IC50 for Leishmania major PTR1; format: toxicity; details: human DHFR enzyme and Leishmania major PTR1 enzyme, read-out: Ratio IC50
[15] = system: Leishmania infantum; assay: Antileishmanial activity against Leishmania infantum infected in BALB/c mouse model of visceral leishmaniasis assessed as footpad lesion development at 50 mg/kg/day, IM administered for 21 days and measured after 9 weeks by Giemsa staining based analysis (reference value: 22.75 +/- 0.71); format: functional; details: time 21 day
[16] = system: Leishmania infantum; assay: Antileishmanial activity against Leishmania infantum infected in BALB/c mouse model of cutaneous leishmaniasis assessed as footpad lesion development at 50 mg/kg/day, ID administered for 21 days and measured after 24 weeks by Giemsa staining based analysis (reference value: 4.90 +/- 0.02); format: functional; details: time 21 day
[17] = system: Leishmania infantum; assay: Antileishmanial activity against Leishmania infantum infected in BALB/c mouse model of cutaneous leishmaniasis assessed as parasite growth in liver at 50 mg/kg/day, ID administered for 21 days; format: functional, organism-based; details: time 21.0 day
[18] = system: Leishmania infantum; assay: Antileishmanial activity against Leishmania infantum infected in BALB/c mouse model of visceral leishmaniasis assessed as footpad lesion development at 50 mg/kg/day, IM administered for 21 days and measured after 10 weeks by Giemsa staining based analysis (reference value: 21.58 +/- 0.74); format: functional; details: time 21 day
[19] = system: Leishmania infantum; assay: Antileishmanial activity against Leishmania infantum infected in BALB/c mouse model of cutaneous leishmaniasis assessed as footpad lesion development at 50 mg/kg/day, ID administered for 21 days and measured after 28 weeks by Giemsa staining based analysis (reference value: 4.92 +/- 0.01); format: functional; details: time 21 day
[20] = (§2) Cytotoxicity against mouse RAW264.7 cells by alamar blue method; format: toxicity, cell-based; details: mouse, RAW264.7 cells
[21] = system: RAW264.7; assay: as §2; format: toxicity, cell-based; details: raw264.7
[22] = biological target: T1, Pteridine reductase 1 (Leishmania major, UniProt Q01782); assay: Inhibition of recombinant Leishmania major PTR1 expressed in Escherichia coli BL21 using folic acid as substrate in presence of NADPH
T1 sequence (Q01782 whole entry): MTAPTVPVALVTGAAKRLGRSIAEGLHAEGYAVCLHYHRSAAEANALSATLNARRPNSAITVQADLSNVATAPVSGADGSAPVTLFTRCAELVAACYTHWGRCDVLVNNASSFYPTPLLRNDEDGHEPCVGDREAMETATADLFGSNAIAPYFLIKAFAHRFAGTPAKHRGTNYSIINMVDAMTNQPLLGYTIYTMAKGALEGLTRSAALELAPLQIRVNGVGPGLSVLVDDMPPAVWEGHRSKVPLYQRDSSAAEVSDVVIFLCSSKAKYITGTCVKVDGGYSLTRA

[23] = system: Leishmania infantum; assay: Antileishmanial activity against Leishmania infantum infected in BALB/c mouse model of visceral leishmaniasis assessed as parasite growth in liver at 50 mg/kg/day, IM administered for 21 days; format: functional, organism-based; details: time 21.0 day
[24] = system: Leishmania infantum; assay: Antileishmanial activity against Leishmania infantum MHOM/TN/1980/IPT1 incubated for 48 hrs by XTT method; format: functional, organism-based; details: MHOM/TN/1980/IPT1, 48 h
[25] = system: Leishmania infantum; assay: Antileishmanial activity against Leishmania infantum infected in BALB/c mouse model of visceral leishmaniasis assessed as footpad lesion development at 50 mg/kg/day, IM administered for 21 days and measured after 8 weeks by Giemsa staining based analysis (reference value: 23.84 +/- 0.93); format: functional; details: time 21 day
[26] = system: Leishmania infantum; assay: Antileishmanial activity against Leishmania infantum infected in BALB/c mouse model of cutaneous leishmaniasis assessed as parasite growth in spleen at 50 mg/kg/day, ID administered for 21 days; format: functional, organism-based; details: time 21.0 day
[27] = system: Leishmania infantum; assay: Antileishmanial activity against Leishmania infantum MHOM/TN/1980/IPT1 incubated for 48 hrs by Neubauer hemocytometer analysis; format: functional, organism-based; details: MHOM/TN/1980/IPT1, 48 h
[28] = system: Leishmania infantum; assay: Antileishmanial activity against Leishmania infantum infected in BALB/c mouse model of cutaneous leishmaniasis assessed as footpad lesion development at 50 mg/kg/day, ID administered for 21 days and measured after 4 weeks by Giemsa staining based analysis (reference value: 1.90 +/- 0.03); format: functional; details: time 21 day
[29] = system: Leishmania infantum; assay: Antileishmanial activity against Leishmania infantum infected in BALB/c mouse model of cutaneous leishmaniasis assessed as footpad lesion development at 50 mg/kg/day, ID administered for 21 days and measured after 14 weeks by Giemsa staining based analysis (reference value: 3.88 +/- 0.03); format: functional; details: time 21 day

Row | IC50 [6] | Structure (SMILES) | Activity [1] | IC50 [2] | log10 IC50 (µg/mL) [3] | Activity [4] | IC50 [5] | Activity [7] | Activity [8] | Activity [9] | Activity [10] | Activity [11] | Activity [12] | Activity [13] | selectivity ratio [14] | Activity [15] | Activity [16] | Activity [17] | Activity [18] | Activity [19] | IC50 [20] | also measured
1 | 7.71 µg/mL (≈ 18.2 µM) | CN1CCN(c2ncc3nc(NC(=O)c4ccc(Cl)c(Cl)c4)sc3n2)CC1 | 26.63 | 27.7 µg/mL (≈ 65.5 µM) | 1.44 | 28.73 | 7.81 µg/mL (≈ 18.4 µM) | Active | 2.41 | 3.41 | 3.61 | 1.61 | inactive | 3.1 | 312 | 22.18 | 4.89 | Active | 21.12 | 4.83 | 16.4 µg/mL (≈ 38.8 µM) | log10 IC50 (µg/mL) [21]: 1.22; IC50 [22]: 21.3 µM; Activity [23]: inactive; IC50 [24]: 8.28 µg/mL (≈ 19.6 µM); Activity [25]: 23.36; Activity [26]: Active; IC50 [27]: 8.16 µg/mL (≈ 19.3 µM); Activity [28]: 1.88; Activity [29]: 3.89
2 | 0.039 µg/mL (≈ 0.081 µM) | CCOC(=O)N1CCN(c2ncc3nc(NC(=O)c4ccc(Cl)c(Cl)c4)sc3n2)CC1 | 26.78 | 14.1 µg/mL (≈ 29.3 µM) | 1.15 | 28.71 | 0.04 µg/mL (≈ 0.0831 µM) | inactive | 2.4 | 3.39 | 3.61 | 1.6 | Active | 3.1 | 42.6 | 27.35 | 4.9 | Active | 27.91 | 3.8 | 15 µg/mL (≈ 31.2 µM) | log10 IC50 (µg/mL) [21]: 1.18; IC50 [22]: 123 µM; Activity [23]: Active; IC50 [24]: 0.042 µg/mL (≈ 0.0873 µM); Activity [25]: 26.84; Activity [26]: Active; IC50 [27]: 0.041 µg/mL (≈ 0.0852 µM); Activity [28]: 1.88; Activity [29]: 3.81
3 | 7.14 µg/mL (≈ 18.8 µM) | CN(C)c1ncc2nc(NC(=O)c3ccc(Cl)c([N+](=O)[O-])c3)sc2n1 | 26.95 | 21 µg/mL (≈ 55.5 µM) | 1.32 | 28.71 | 6.68 µg/mL (≈ 17.6 µM) | Active | 2.39 | 3.37 | 3.61 | 1.59 | Active | 3.09 | 7.02 | 28.13 | 4.88 | Active | 29.09 | 3.71 | 8.75 µg/mL (≈ 23.1 µM) | log10 IC50 (µg/mL) [21]: 0.94; IC50 [22]: 680 µM; Activity [23]: Active; IC50 [24]: 6.77 µg/mL (≈ 17.9 µM); Activity [25]: 27.42; Activity [26]: Active; IC50 [27]: 7.06 µg/mL (≈ 18.6 µM); Activity [28]: 1.89; Activity [29]: 3.83
